Data from patent publication US9278982B2, “Targeting human thymidylate kinase induces DNA repair toxicity in malignant tumor cells” (NATIONAL YANG-MING UNIVERSITY, priority 2010, dated 2016).

Experiments:
HCT-116 p53−/− cells = assay: In vivo xenograft model, sensitization to low-dose doxorubicin; set-up: species or system Balb/c nude mice
Method: FIG. 16. In vitro and in vivo effect of YMU1 on doxorubicin sensitization. (A) A panel of cell lines were pre-treated with vehicle, YMU1 (compound 21), D6 (ethyl 4-(2-chloroacetyl)piperazine-1-carboxylate) or D7 (compound 28) for 3 days and were exposed to different concentration of doxorubicin for 4 h. […] The enhancement (fold) of doxorubicin sensitivity in each cell line was calculated. Data represent mean±s.d., n=3; each experiment was quadruplex. Inset indicates the IC50 value of doxorubicin in various cell lines. […] Following overnight culture, cells were refreshed with growth medium. After 14 days of culture, colonies were fixed, stained by crystal violet and counted. (C) HCT-116 p53^−/− cells were subcutaneously implanted in the right flank of Balb/c nude mice (each experimental group n=8). Arrow indicated the time of stopping drug treatment. The tumor volume was estimated as described in Methods of the Invention section. (D) After 2 weeks recovered from treatment, mice were sacrificed for tumor weight measurement. Data represent mean±s.e.m; **, P<0.01 by a two-tailed Student's t-test. (E) Ki 67 proliferation marker staining of tumor shown in left panel. Scale bar, 50 μm. (F) Model of doxorubicin sensitization by YMU1 in malignant cancer cells. […]
We also used an in vivo xenograft model to examine the effect of YMU1 as an adjuvant on sensitization to low-dose doxorubicin treatment. […] Two weeks after the last injections were administered, mice were sacrificed and tumor weights measured. […]
Female BALB/c AnN.Cg-Foxnl^nu/Crl Nurl mice 6-8 weeks of age (National Laboratory Animal Center, Taiwan) were used for the tumor xenograft model. […] The tumor size was measured every day after initiated drug treatment with an electronic caliper. […]
Monoclonal Ki 67 antibody (B56) was purchased from BD PharMingen. Paraffin-embedded tumor sections (5 μm) were incubated with the primary antibody, detected with a LSAB™ kit (DakoCytomation) according to the manufacturer's instructions and counterstained with hematoxylin.

thymidine kinase 1 (TK1) = target: T1, thymidine kinase 1 (TK1) (Homo sapiens, UniProt P04183); assay: Luciferase-coupled TK assay; format: biochemical; details: GST-hTK1 protein (5 μg), 10 min preincubation
T1 construct: made in house; host or cells: E. coli JM109 (pGEX-3X-hTK1)
T1 sequence (P04183 whole entry): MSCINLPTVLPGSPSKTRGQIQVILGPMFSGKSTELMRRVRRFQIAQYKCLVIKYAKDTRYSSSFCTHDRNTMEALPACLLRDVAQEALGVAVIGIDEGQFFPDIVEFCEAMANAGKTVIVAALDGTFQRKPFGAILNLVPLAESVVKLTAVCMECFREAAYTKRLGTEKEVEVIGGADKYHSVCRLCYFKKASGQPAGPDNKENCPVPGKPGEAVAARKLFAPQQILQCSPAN
Method: FIG. 12. Identification of a novel hTMPK inhibitor. (A) A screen of TMPK inhibitor by luciferase-coupled assay. (B) The chemical structures of YMU1 (compound 21) and related molecules. (C) Effect of YMU1 and derivative compounds on hTMPK inhibition using purified hTMPK protein (0.5 μg) with 10 min preincubation prior to reaction using luciferase-coupled TMPK analysis. (D) Effect of YMU1 on activity of purified TMPK (0.5 μg) and GST-hTK1 protein (5 μg) with 10 min preincubation prior to reaction. Data represent mean±s.d. (n=4) (E) Molecular models of the TMPK-YMU1 complex. Left panel: TMPK/ATP/Mg+2; right panel: TMPK/YMU1. The TMPK is represented in surface electrostatic potential (upper) and structural ribbon (lower). ATP and YMU1 are shown in green and blue stick, respectively, with colored atom (O, red; S, yellow; P, orange). […]
The TK reaction was started by adding purified hTMPK in 50 μl of TK assay buffer (50 mM Tris-HCl, pH 7.5, 1 mM CHAPS, 3 mg/ml BSA, 2.5 mM MgCl2, 50 μM ATP and 100 μM thymidine) in 96 wells plate at 25° C. for 10 min and terminated by adding 200 μl of thymidine (1.25 mM), followed by transferring 10 μl of reaction solution to a white 96-wellplate containing 90 μl of luciferase assay buffer (50 mM Glycine, 0.5 mM EDTA and 5 mM EDTA, pH 7.0, 0.1 μg of luciferase, 50 μM luciferin and 0.1% BSA). The luminescence was measured with a luminescence counter (Packard).

`CCOC(=O)N1CCN(C(=O)Cn2sc3nc(C)cc(C)c3c2=O)CC1` [compound 21, Ethyl 4-(2-(4,6-dimethyl-3-oxoisothiazolo[5,4-b]pyridin-2(3H)-yl)acetyl) piperazine-1-carboxylate] was tested, and the “growth of tumors, YMU1 combined with doxorubicin” value (HCT-116 p53−/− cells; YMU1 15 mg/kg thrice a week + doxorubicin 1.25 mg/kg twice a week, i.p., 4 weeks) was “much slower”, the “tumor proliferation index (Ki 67 immunostaining), YMU1 combined with doxorubicin” value (HCT-116 p53−/− cells; combinatory treatment of YMU1 and doxorubicin) was “clearly reduced” and the “average tumor size relative to control mice, YMU1 combined with doxorubicin” value (HCT-116 p53−/− cells; two weeks after the last injections, YMU1 15 mg/kg thrice a week + doxorubicin 1.25 mg/kg twice a week, i.p.) was 25%. The “inhibitory effect on activity of purified thymidine kinase 1 (TK1)” value (thymidine kinase 1 (TK1)) was “without inhibitory effect”.
